Assay results published in patent publication US20240262806A1, “INHIBITORS OF NLRP3” (PTC THERAPEUTICS, INC., priority 2021, published 2024).

Test system: NLRP3 inflammasome
Test: IL-1β Secretion Assay (NLRP3-dependent IL-1β secretion in PMA-differentiated THP-1 cells, nigericin activation, HTRF)
Format: cell-based
Conditions: Homo sapiens, THP-1, THP-1 cells, 100 ng/mL PMA 24 h, compound 20 h, 2.5 μM Nigericin 3 h; read-out: IC50 IL-1β Inhibition
Summary of the method: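 IL-1β release, quantified by HTRF after nigericin activation of the NLRP3 inflammasome, was the read-out. A logistic fit of percent inhibition gave IC50.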

Row | SMILES | IC50 [nM]
1 | CN1CCC[C@@H](Nc2nnc(-c3ccc(C(F)(F)F)cc3-c3cnn(C)c3)c3cnccc23)C1 [Compound I-189] | 10 to 100
2 | CN1C[C@H](F)C[C@@H](Nc2nnc(-c3ccc(C(F)(F)F)cc3OC(F)F)c3c(F)ccn23)C1 [Compound I-439] | 1 to 10
3 | Oc1cc(C(F)(F)F)ccc1-c1nnc(N[C@@H]2CCCN(C3CCOC3)C2)c2cnccc12 (stereo partly shown) [Compound I-281] | < 1
4 | OCCN1CCC[C@@H](Nc2nnc(-c3ccc(C(F)(F)F)cc3O)c3ccncc23)C1 [Compound I-55] | < 1
5 | CN1CCC[C@@H](Nc2nnc(-c3ccc(C4CCOC4)cc3O)c3ccccc23)C1 (stereo partly shown) [Compound I-61] | 1 to 10
6 | C[C@]1(O)C[C@@H](Nc2nnc(-c3ccc(C(F)(F)F)cc3O)c3c(F)ccn23)C1 [Compound I-593] | 1 to 10
7 | Cc1cc2c(-c3c(O)cc(C4CC4)cc3F)nnc(N[C@@H]3CCCN(C)C3)n2n1 [Compound I-429] | < 1
8 | Oc1cc(C(F)(F)F)ccc1-c1nnc(NC2CCCCC2)c2cnccc12 [Compound I-288] | 1 to 10
9 | CC(C)N1CCC[C@@H](Nc2nnc(-c3ccc(C(F)(F)F)cc3C(F)(F)F)c3cccn23)C1 [Compound I-530] | < 1
10 | Oc1cc(C(F)(F)F)ccc1-c1nnc(N[C@H]2CNC[C@@H](F)C2)n2cccc12 [Compound I-575] | 100 to 300
11 | Oc1cc(C(F)(F)F)ccc1-c1nnc(NC[C@@H]2CCCN2)c2ccncc12 [Compound I-110] | < 1
12 | OCCN1CCC[C@@H](Nc2nnc(-c3ccc(C(F)(F)F)cc3O)c3cnccc23)C1 [Compound I-101] | < 1
13 | CC(C)N1CCC[C@@H](Nc2nnc(-c3ccc(C(F)(F)F)cc3O)c3ccncc23)C1 [Compound I-295] | < 1
14 | Oc1cc(C(F)(F)F)ccc1-c1nnc(NC[C@@H]2CCCN2)c2cnccc12 [Compound I-111] | 1 to 10
15 | COc1ccc(-c2nnc(N[C@@H]3CCCN(C)C3)n3c(C)ncc23)c(O)c1 [Compound I-411] | 10 to 100
16 | CN1CCC[C@@H](Nc2nnc(-c3ncc(Cl)cc3O)c3ccncc23)C1 [Compound I-172] | 1 to 10
17 | CN1C[C@@H](F)C[C@H](Nc2nnc(-c3ccc(C(F)(F)F)cc3O)c3ccccc23)C1 [Compound I-164] | 10 to 100
18 | CCN1CCC[C@H]1CNc1nnc(-c2c(O)cc(C3CC3)cc2F)c2cccn12 [Compound I-583] | 1 to 10
19 | CN1CCC[C@@H](Nc2nnc(-c3ccc(Cl)cc3O)c3cccnc23)C1 [Compound I-67] | < 1
20 | CN1CCC[C@@H](Nc2nnc(-c3c(O)cc(C4CC4)cc3F)c3ccncc23)C1 [Compound I-196] | < 1
21 | Oc1cc(C(F)(F)F)ccc1-c1nnc(N[C@@H]2CCC[C@H](O)C2)n2cccc12 [Compound I-399] | 10 to 100
22 | Cc1cc(O)c(-c2nnc(N[C@@H]3CCCN(C(C)C)C3)n3cccc23)c(F)c1 [Compound I-569] | < 1
23 | Cc1cc(O)c(-c2nnc(N[C@@H]3CCCN(CC(F)(F)F)C3)n3cccc23)c(F)c1 [Compound I-570] | 1 to 10
24 | COc1cc(C(F)(F)F)ccc1-c1nnc(NC2CC3CCC(C3)N2C)c2cnccc12 (stereo not shown) [Compound I-213] | 100 to 300
25 | CN1CCC[C@@H](Nc2nnc(-c3ccc(C(F)(F)F)cc3NS(C)(=O)=O)c3ccccc23)C1 [Compound I-124] | 1 to 10
26 | Oc1cc(C(F)(F)F)ccc1-c1nnc(N[C@@H]2CCCNC2)c2c1CCCC2 [Compound I-11, (R)-2-(4-(Piperidin-3-ylamino)-5,6,7,8-tetrahydrophthalazin-1-yl)-5-(trifluoromethyl)phenol] | 10 to 100
27 | Cc1cc(C(F)(F)F)cc(O)c1-c1nnc(N[C@@H]2CCCN(C)C2)n2cccc12 [Compound I-431] | < 1
28 | Cc1ncc2c(-c3ccc(C(F)(F)F)cc3O)nnc(N[C@@H]3CCCN(C)C3)n12 [Compound I-543, (R)-2-(6-Methyl-4-((1-methylpiperidin-3-yl)amino)imidazo[1,5-d][1,2,4]triazin-1-yl)-5-(trifluoromethyl)phenol] | < 1
